Assay [1] deals with T1, FAAH (Mus musculus, UniProt O08914).
T1 construct: A fragment of liver, left lung lobe and brain without cerebellum were removed; from tissue; host or cells: male NMRI mice; brain (without cerebellum) and liver homogenates
T1 sequence (O08914 1-579): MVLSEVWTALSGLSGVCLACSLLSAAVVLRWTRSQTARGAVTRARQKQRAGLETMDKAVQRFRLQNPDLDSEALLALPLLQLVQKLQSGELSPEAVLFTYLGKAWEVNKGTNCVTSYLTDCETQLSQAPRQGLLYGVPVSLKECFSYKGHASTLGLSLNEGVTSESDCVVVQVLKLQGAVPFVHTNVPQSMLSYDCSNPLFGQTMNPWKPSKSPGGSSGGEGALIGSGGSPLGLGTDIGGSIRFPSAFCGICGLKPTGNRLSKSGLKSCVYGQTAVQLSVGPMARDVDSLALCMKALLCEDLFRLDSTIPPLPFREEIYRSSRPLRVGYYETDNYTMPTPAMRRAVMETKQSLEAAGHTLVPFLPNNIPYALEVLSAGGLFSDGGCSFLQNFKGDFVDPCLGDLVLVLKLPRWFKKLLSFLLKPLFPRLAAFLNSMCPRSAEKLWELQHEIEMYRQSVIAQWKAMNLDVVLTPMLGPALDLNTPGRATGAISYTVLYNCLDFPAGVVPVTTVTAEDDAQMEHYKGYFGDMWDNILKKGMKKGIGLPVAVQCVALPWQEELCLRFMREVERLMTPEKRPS
Briefly: In vivo FAAH inhibition after oral dosing, remaining activity in brain homogenate (BRh, central nervous tissue). Set-up: species or system NMRI mice. The note with it: brain homogenate; for In Vivo BRh 3 mg·kg 8 h (remaining FAAH activity, % of control): 8 h after dosing, low value = strong inhibitor. An outline of the steps: (§1)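 Male NMRI mice, fasted overnight, got 30 or 3 mg/kg compound orally (0.5% CMC suspension or water) and were compared with vehicle controls. Brain (no cerebellum) and liver homogenates were incubated with 2 μM AEA plus 5 nM 3H-AEA at 37 °C, 10 min for brain and 7 min for liver. Remaining FAAH activity is % of vehicle after blank subtraction.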

Assay [2] has as its target T1, FAAH. Briefly: In vivo FAAH inhibition after oral dosing, remaining activity in liver homogenate (LVh, peripheral tissue). The note with it: liver homogenate; for In Vivo LVh 3 mg·kg 8 h (remaining FAAH activity, % of control): 8 h after dosing, low value = strong inhibitor. Set-up: species or system NMRI mice. An outline of the steps:
as §1

Assay [3] has as its target T2, FAAH (Rattus norvegicus, UniProt P97612).
T2 construct: Frozen brains (without cerebellum) from Wistar rats were used; from tissue; host or cells: Wistar rat brain (without cerebellum), washed membrane pellets
T2 sequence (P97612 1-579): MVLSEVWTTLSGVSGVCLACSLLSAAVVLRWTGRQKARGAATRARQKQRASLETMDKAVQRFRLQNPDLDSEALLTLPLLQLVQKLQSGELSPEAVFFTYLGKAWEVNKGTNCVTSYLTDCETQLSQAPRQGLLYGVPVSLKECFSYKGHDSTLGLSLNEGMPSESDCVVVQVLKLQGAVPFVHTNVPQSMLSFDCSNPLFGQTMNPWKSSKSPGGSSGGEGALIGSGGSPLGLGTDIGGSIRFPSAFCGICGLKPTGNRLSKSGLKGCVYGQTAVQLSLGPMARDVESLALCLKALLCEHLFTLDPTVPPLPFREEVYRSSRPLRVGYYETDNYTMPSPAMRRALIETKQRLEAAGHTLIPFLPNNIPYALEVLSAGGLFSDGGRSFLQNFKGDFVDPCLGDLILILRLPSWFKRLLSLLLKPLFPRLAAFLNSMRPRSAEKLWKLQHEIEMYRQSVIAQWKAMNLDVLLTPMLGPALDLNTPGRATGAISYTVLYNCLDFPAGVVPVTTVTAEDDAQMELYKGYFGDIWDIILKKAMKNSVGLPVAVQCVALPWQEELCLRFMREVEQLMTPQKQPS
In words: In vitro FAAH activity in rat brain membranes, 3H-AEA substrate, % of control. Format: biochemical, Wistar rats. The note with it: low value = strong inhibitor; for In Vitro FAAH activity, 100 nM: 100 nM test compound; for In Vitro FAAH activity, 10 uM: 10 uM test compound; for In Vitro 100 nM (FAAH activity, % of control): rat brain membranes, compound at 100 nM. The method in brief:
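Wistar rat brain membranes (5 μg protein) preincubated 15 min at 37 °C with compound at 10 μM or 0.1 μM (0.1% DMSO), then 2 μM AEA including 3H-AEA with 0.1% BSA, Tris pH 7.6, 10 min. 3H-ethanolamine counted after charcoal stop; % of no-compound control after blank subtraction.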

The structures appear in SMILES notation.

The text below walks through data of US9353082B2, “Pharmaceutical compounds” (BIAL—PORTELA & CA, S.A., priority 2008, dated 2016).

For `CC1(C)COCN1C(=O)n1cnc(-c2cccnc2)c1.Cl.Cl` [Compound 226, (4,4-dimethyloxazolidin-3-yl)(4-(pyridin-3-yl)-1H-imidazol-1-yl)methanone dihydrochloride], the “In Vivo BRh 3 mg/kg 8 h, remaining FAAH activity” value at FAAH [1] is reported as 8.4 % of control. In addition, on FAAH [2], the “In Vivo LVh 3 mg/kg 8 h, remaining FAAH activity” value is listed as 5.1 % of control. Also, the “In Vitro FAAH activity, 100 nM” value on FAAH [3] is reported as 76.6 % of control.
The corresponding values for `O=C(N1CCCc2ccccc21)n1cnc(-c2cccc(O)c2)c1` [Compound 51, (3,4-dihydroquinolin-1(2H)-yl)(4-(3-hydroxyphenyl)-1H-imidazol-1-yl)methanone] are 130.4 % of control, 132.3 % of control and 100.8 % of control.
For `NC(=O)c1ccc(Oc2cccc(-c3ncn(C(=O)N4CCN(c5ccccc5)CC4)n3)c2)cc1` [Compound 208, 4-(3-(1-(4-phenylpiperazine-1-carbonyl)-1H-1,2,4-triazol-3-yl)phenoxy)benzamide], on FAAH [1], the “In Vivo BRh 3 mg/kg 8 h, remaining FAAH activity” value is 97.2 % of control. Besides, the “In Vivo LVh 3 mg/kg 8 h, remaining FAAH activity” value on FAAH [2] was 96.7 % of control. On FAAH [3], the “In Vitro FAAH activity, 100 nM” value is on record as 0.2 % of control.
As for `O=C(N1CCOCC1)n1nnc2ccccc21` [Compound 19, (1H-benzo[d][1,2,3]triazol-1-yl)(morpholino)methanone], the “In Vivo BRh 30 mg/kg 1 h, remaining FAAH activity” value at FAAH [1] is 46.6 % of control. For the same compound, at FAAH [2], the “In Vivo LVh 30 mg/kg 1 h, remaining FAAH activity” value is on record as 41.1 % of control. Further, on FAAH [3], the “In Vitro FAAH activity, 100 nM” value is reported as 3.1 % of control and the “In Vitro FAAH activity, 10 uM” value was 0.1 % of control.
Regarding `CN(C(=O)n1nnc2ccc(Cl)cc21)c1ccccc1` [Compound 32, 6-chloro-N-methyl-N-phenyl-1H-benzo[d][1,2,3]triazole-1-carboxamide], the “In Vivo BRh 30 mg/kg 1 h, remaining FAAH activity” value on FAAH [1] was 85.9 % of control. The “In Vivo LVh 30 mg/kg 1 h, remaining FAAH activity” value at FAAH [2] is recorded as 64.9 % of control. Further, at FAAH [3], the “In Vitro FAAH activity, 100 nM” value is 0.1 % of control and the “In Vitro FAAH activity, 10 uM” value is listed as 0 % of control.
On to `O=C(N1CCN(Cc2ccc(F)cc2)CC1)n1nnc2ccccc21` [Compound 121, (1H-benzo[d][1,2,3]triazol-1-yl)(4-(4-fluorobenzyl)piperazin-1-yl)methanone], for which the “In Vivo BRh 3 mg/kg 8 h, remaining FAAH activity” value at FAAH [1] was 118.6 % of control. Further, the “In Vivo LVh 3 mg/kg 8 h, remaining FAAH activity” value at FAAH [2] is 116.1 % of control. For the same compound, the “In Vitro FAAH activity, 100 nM” value at FAAH [3] is recorded as 0 % of control.
Regarding `O=C(N1CCS(=O)(=O)C1)n1nnc2ccccc21` [Compound 167, 1-[(1,1-dioxido-1,3-thiazolidin-3-yl)carbonyl]-1H-benzotriazole], the “In Vivo BRh 3 mg/kg 8 h, remaining FAAH activity” value at FAAH [1] was 99.9 % of control. Further, the “In Vivo LVh 3 mg/kg 8 h, remaining FAAH activity” value at FAAH [2] is reported as 104 % of control. Moreover, at FAAH [3], the “In Vitro FAAH activity, 100 nM” value is 96.2 % of control.
On the same counts, the results for `CC1(C)COCN1C(=O)n1cnc(-c2cccs2)n1` [Compound 213, (4,4-dimethyloxazolidin-3-yl)(3-(thiophen-2-yl)-1H-1,2,4-triazol-1-yl)methanone] are 53.7 % of control, 6.9 % of control and 105.6 % of control.
As to `CN(C(=O)n1cnc(-c2ccc(O)cc2)c1)C1CCCCC1` [Compound 261, N-cyclohexyl-4-(4-hydroxyphenyl)-N-methyl-1H-imidazole-1-carboxamide], on FAAH [1], the “In Vivo BRh 3 mg/kg 8 h, remaining FAAH activity” value is recorded as 1.2 % of control. Also, the “In Vivo LVh 3 mg/kg 8 h, remaining FAAH activity” value at FAAH [2] is listed as 1.2 % of control. Moreover, on FAAH [3], the “In Vitro FAAH activity, 100 nM” value is 54.1 % of control and the “In Vitro FAAH activity, 10 uM” value was 0 % of control.
On to `Cc1c(-c2ccccc2)ncn1C(=O)N(C)Cc1ccccc1` [Compound 264, N-benzyl-N,5-dimethyl-4-phenyl-1H-imidazole-1-carboxamide], for which the “In Vivo BRh 3 mg/kg 8 h, remaining FAAH activity” value on FAAH [1] is 115 % of control. The “In Vivo LVh 3 mg/kg 8 h, remaining FAAH activity” value on FAAH [2] is recorded as 76.6 % of control. At FAAH [3], the “In Vitro FAAH activity, 100 nM” value is recorded as 88 % of control.
In the case of `CN(C(=O)n1cnc(-c2cccnc2)c1)C1CCCCC1` [Compound 335, N-cyclohexyl-N-methyl-4-(pyridin-3-yl)-1H-imidazole-1-carboxamide], the “In Vivo BRh 3 mg·kg 8 h (remaining FAAH activity, % of control)” value at FAAH [1] is 3.1 % of control. In addition, at FAAH [2], the “In Vivo LVh 3 mg·kg 8 h (remaining FAAH activity, % of control)” value was 1 % of control. On FAAH [3], the “In Vitro 100 nM (FAAH activity, % of control)” value is recorded as 75.4 % of control.
`CN(C(=O)n1cnc(-c2ccc(C(N)=O)cc2)c1)c1ccccc1` [Compound 113, 4-(4-carbamoylphenyl)-N-methyl-N-phenyl-1H-imidazole-1-carboxamide]: at FAAH [1], the “In Vivo BRh 3 mg/kg 8 h, remaining FAAH activity” value is on record as 84.1 % of control. The “In Vivo LVh 3 mg/kg 8 h, remaining FAAH activity” value at FAAH [2] is recorded as 32.3 % of control. For the same compound, on FAAH [3], the “In Vitro FAAH activity, 100 nM” value is 90.3 % of control.
On to `CN1CCN(c2ccc(-c3ncn(C(=O)N4CCOCC4)n3)cc2)CC1` [Compound 139, (3-(4-(4-methylpiperazin-1-yl)phenyl)-1H-1,2,4-triazol-1-yl)(morpholino)methanone], for which the “In Vivo BRh 3 mg/kg 8 h, remaining FAAH activity” value at FAAH [1] was 97.1 % of control. At FAAH [2], the “In Vivo LVh 3 mg/kg 8 h, remaining FAAH activity” value is 105.7 % of control. Further, the “In Vitro FAAH activity, 100 nM” value at FAAH [3] is on record as 80.2 % of control.
Consider `O=C(N1CCC(c2ccncc2)CC1)n1nnc2ccccc21` [Compound 114, (1H-benzo[d][1,2,3]triazol-1-yl)(4-(pyridin-4-yl)piperidin-1-yl)methanone], for which, at FAAH [1], the “In Vivo BRh 3 mg/kg 8 h, remaining FAAH activity” value is on record as 102.9 % of control. Also, the “In Vivo LVh 3 mg/kg 8 h, remaining FAAH activity” value at FAAH [2] was 109.9 % of control. For the same compound, the “In Vitro FAAH activity, 100 nM” value on FAAH [3] is on record as 0.1 % of control.
On the same counts, the results for `COc1cc(-c2cn(C(=O)N3COCC3(C)C)cn2)ccc1O` [Compound 228, (4,4-dimethyloxazolidin-3-yl)(4-(4-hydroxy-3-methoxyphenyl)-1H-imidazol-1-yl)methanone] are 56.4 % of control, 31.9 % of control and 78.1 % of control.
The corresponding values for `O=C(N1CCN(C2CCCCC2)CC1)n1nnc2ccccc21` [Compound 127, (1H-benzo[d][1,2,3]triazol-1-yl)(4-cyclohexylpiperazin-1-yl)methanone] are 111.5 % of control, 107.3 % of control and 0.1 % of control.
For `Cc1nc(-c2ccccc2)nn1C(=O)N(C)C1CCCCC1` [Compound 284, N-cyclohexyl-N,5-dimethyl-3-phenyl-1H-1,2,4-triazole-1-carboxamide], the “In Vivo BRh 3 mg·kg 8 h (remaining FAAH activity, % of control)” value at FAAH [1] is listed as 130.7 % of control. Also, at FAAH [2], the “In Vivo LVh 3 mg·kg 8 h (remaining FAAH activity, % of control)” value was 145.6 % of control. For the same compound, at FAAH [3], the “In Vitro 100 nM (FAAH activity, % of control)” value is reported as 146.2 % of control.
For `CN(C(=O)n1nnc2cc(Cl)ccc21)c1ccccc1` [Compound 33, 5-chloro-N-methyl-N-phenyl-1H-benzo[d][1,2,3]triazole-1-carboxamide], at FAAH [1], the “In Vivo BRh 30 mg/kg 1 h, remaining FAAH activity” value is 82.3 % of control. Besides, at FAAH [2], the “In Vivo LVh 30 mg/kg 1 h, remaining FAAH activity” value is given as 76.7 % of control. Moreover, on FAAH [3], the “In Vitro FAAH activity, 100 nM” value was 6.2 % of control and the “In Vitro FAAH activity, 10 uM” value was 0 % of control.
